{
  "source": "patent US20100247688A1",
  "about": "(priority 2007, published 2010)",
  "key": {"in vivo": {"assay": "in vivo", "conditions": "rat", "procedure": "AC-92 was prepared in DMSO and diluted in sterile phosphate buffered saline (final DMSO concentration 1.0%). […] Animals were sacrificed at 3 and 6 hours after dosing via lethal narcosis. Blood was sampled via cardiac puncture. Serum was prepared by allowing whole blood to stand at 4° C. for 60 min; plasma was prepared using heparin as the anti-coagulant. CSF was collected via the foramen magnum immediately after sacrifice. Brain material was collected by opening of the skull and simple excision of the right cortex. Samples were snap frozen using liquid nitrogen immediately after collection. All procedures were conducted in conformity with applicable German and EU laws on animal experimentation and the study was approved by a government appointed ethics committee.\nTo determine the extent of central exposure, bioavailability studies were undertaken."}, "hAPP Tg mice (APP751S/L)": {"system": "hAPP Tg mice (APP751S/L)", "assay": "Morris Water Maze in hAPP Tg mice", "assay_type": "in vivo, mouse", "conditions": "for probe trial: crossings over the former target position: 1 mg/kg, versus Tween 80 vehicle group; for performance in Morris Water Maze: other concentration of AC-91 (not 1 or 20 mg/kg) or Compounds B", "procedure": "Therefore, mice were treated for 33 days and in the end of the treatment period behavior was evaluated in the Morris Water Maze and additionally a Object Recognition Task.\nFemale Tg and nTg mice with a C57BL/6×DBA background and an age of 7 months (±2 week) were randomly assigned to treatment groups 1 to 9 (n=20 for groups 3 to 7, n=15 for groups 1, 2, 8 and 9). […] All animals which were used for the present study had dark eyes and were likely to perceive the landmarks outside the MWM pool. However, it had to be excluded that seeing abilities of an animal were poor, which was controlled in the visible platform training, the so called pretest, before treatment start for all animals including reserves enclosed to the study. In case a seeing handicap for a specific animal would have been affirmed, the mouse would have been excluded from the study.\nCompounds or vehicle were administered via oral gavage in a daily volume of 10 ml/kg/b.w. for 33 days.\nThe Morris Water Maze task was conducted in a black circular pool of a diameter of 100 cm. Tap water was filled in with a temperature of 22±1° C. and the pool was virtually divided into four sectors. A transparent platform (8 cm diameter) was placed about 0.5 cm beneath the water surface. During the whole test session, except the pretest, the platform was located in the southwest quadrant of the pool.\nOne day before the 4 days lasting training session animals had to perform a so called “pre-test” (two 60 sec lasting trials) to ensure that the seeing abilities of each animal were normal. Only animals that fulfilled this task were enclosed to the MWM testing.\nIn the MWM task, each mouse had to perform three trials on four consecutive days. A single trial lasted for a maximum of one minute. During this time, the mouse had the chance to find the hidden, diaphanous target. If the animal could not find a “way” out of the water, the investigator guided to or placed the mouse on the platform. After each trial mice were allowed to rest on the platform for 10-15 sec.\nDuring this time, the mice had the possibility to orientate in the surrounding. Investigations took place under dimmed light conditions, to prevent the tracking system from negative influences (Kaminski; PCS, Biomedical Research Systems). On the walls surrounding the pool, posters with black, bold geometric symbols (e.g. a circle and a square) were fixed which the mice could use the symbols as landmarks for their orientation.\nOne swimming group per trial consisted of five to six mice, so that an intertrial time of about five to ten minutes was ensured. For the quantification of escape latency (the time [second]−the mouse needed to find the hidden platform and therefore to escape from the water), of pathway (the length of the trajectory [meter] to reach the target) and of the abidance in the goal quadrant a computerized tracking system was used. The computer was connected to a camera placed above the centre of the pool. The camera detected the signal of the light emitting diode (LED), which was fixed with a little hairgrip on the mouse's tail.\nTwenty-four hours after the last trial on day 4 the mice had to fulfil a so-called probe trial. At this time, the platform was removed from the pool and during the one-minute probe trial; the experimenter counted the number of crossings over the former target position. Additionally the abidance in this quadrant as well as the three other quadrants was calculated. Through out this trial a mouse could not get any, howsoever natured, clue from the platform."}, "[1]": {"assay_type": "in vivo", "conditions": "daily oral gavage, 33 days; AC-91 in four different concentrations", "from_the_text": "In total 171 female hAPP Tg and nTg mice with an age of 6.5 months at treatment start were enclosed to study."}, "APPPS1 transgenic mice": {"system": "APPPS1 transgenic mice", "assay": "Plaque load, plaque volume and area in APPPS1 transgenic model for cerebral amyloidosis", "assay_type": "in vivo, mouse", "conditions": "for increase of amyloid load as % of that expected with normal progression of the model: AC-92 after 3 months, AC-91 at month 5; for plaque volume and area smaller than vehicle-treated controls: APPPS1 mice", "procedure": "The transgenic model and corresponding […] analysis of brain sections was provided by Prof. Mathias Jucker, Department of Cellular Neurology, Hertie-Institute for Clinical Brain Research University of Tübingen, Otfried-Müller Strasse 27, D-72076 Tübingen, Germany. APPPS1 transgenic mice express both KM670/671NL mutated human APP and L166P mutated human PS1 under the Thy-1 promoter element (Radde et al., 2005). They were treated with the compounds from the age of 126 days after birth (DAB) to 158 DAB. […] On completion of the dosing period, animals were sacrificed by lethal narcosis followed by collection of blood by cardiac puncture and recovery of brain material for sectioning and extraction of drug and relevant peptides. […] Brains were removed and postfixed at 4° C. in 4% PFA, dehydrated in 30% sucrose, and frozen. Serial coronal serial 40 μm sections were cut with a microtome and collected in cryoprotectant (30% glycerol, 45% ethylene glycol in PBS) and stored at −20° C. until use.\nFree-floating sections were processed for immunohistochemistry as described elsewhere (Stalder et al., 2005). Briefly, sections were washed in TBS and blocked with 3% goat or donkey serum (Vector Laboratories Inc., Burlingame, Calif.) in 0.3% Triton-X-100 (Fisher, Fair Lawn, N.J.). The sections were incubated overnight with primary antibodies at 4° C. in 2% serum and 0.3% Triton-X-100, washed three times with TBS and incubated for 3 hours with biotin-conjugated secondary antibodies. After repeated TBS washing, sections were stained by complexing with SG blue (Vectastain ABC elite kit; Vector Laboratories). Sections were mounted on precleaned glass microscope slides (Superfrost® Plus; Langenbrinck, Teningen, Germany), dehydrated with an alcohol series, cleared in xylene and coverslipped in a xylene soluble mounting medium (Pertex®, medite GmbH, Burgdorf, Germany). Amyloid load was estimated on every 12th section throughout the entire neocortex.\nIn vivo experiments were performed using a very aggressive double transgenic mouse model for cerebral amyloidosis (Radde et al., 2006). APPPS1 transgenic mice expressing both KM670/671NL mutated human APP and L166P mutated human PS1 under the Thy-1 promoter element (Radde et al., 2005) were treated with the compounds from the age of 126 days after birth (DAB) to 158 DAB. Mice were treated as described in A3. above. On completion of the dosing period, samples were taken from the animals and snap frozen using liquid nitrogen as reported herein previously (see Section A3. above).\nIn the model, plaque load in the brain is known to increase roughly exponentially with age (Radde et al., 2005). […] These conditions should be suitable to provide insight, whether initial formation of plaques or downstream processes reversing existing plaque loads are involved in corresponding drug effects."}, "[2]": {"assay": "ACI-91 and ACI-92 levels in plasma, CSF and brain homogenates of transgenic mice", "assay_type": "in vivo, mouse", "conditions": "for concentration in brain as % of plasma concentration / Kp at 33 days: 100 mg/kg ACI-91 or 50 mg/kg ACI-92, 33 days; for Kp at 33 days: mouse, brain homogenate, oral, read-out: concentration in brain as % of plasma concentration", "procedure": "Determination of ACI-91 and ACI-92 in mouse plasma, CSF and brain homogenate samples was done by HPLC-MS/MS by Quality Assistance SA, Technoparc de Thudinie 2, B-6536 Donstiennes, Belgium.\nThe amounts of ACI-91 and of ACI-92 in plasma, CSF and in brain homogenates is determined after treatment of hAPP single transgenic mice (JSW, Graz) and hAPP-PS1 double-transgenic mice (Synovo, Tübingen), respectively, for 33 days with doses of 1, 5, 20 and 100 mg/kg of ACI-91 and 50 mg/kg ACI-92 and doses of 100 mg/kg of ACI-91 and 50 mg/kg ACI-92, respectively."}},
  "note": "“Also recorded” adds a separate entry of the source. Like-named read-outs stand apart in the source and are kept apart here.",
  "data": [
    {"compound": "CN1CCN(CC(=O)N2c3ccccc3C(=O)Nc3cccnc32)CC1", "note": "[AC-91, pirenzepine]", "values": [
      {"measurement": "half-life", "setting": "in vivo; male, Lewis, po", "result": "~12", "unit": "h"},
      {"measurement": "escape latency in Morris Water Maze", "setting": "hAPP Tg mice (APP751S/L); 1 mg/kg daily oral, 33 days", "result": "reduced relatively to the historic group"},
      {"measurement": "probe trial: crossings over the former target position", "setting": "hAPP Tg mice (APP751S/L)", "result": "significantly (p<0.05) more often"},
      {"measurement": "probe trial: crossings over the former target position", "setting": "hAPP Tg mice (APP751S/L); listed as formula II", "result": "significantly more often"},
      {"measurement": "escape latency in Morris Water Maze", "setting": "hAPP Tg mice (APP751S/L); 20 mg/kg daily oral, 33 days", "result": "comparable escape latency to the ntg vehicle treated mice; also recorded: reduced relatively to the historic group"},
      {"measurement": "escape latency in Morris Water Maze", "setting": "hAPP Tg mice (APP751S/L); 20 mg/kg daily oral, 33 days, listed as formula II", "result": "comparable escape latency to the non transgenic vehicle treated mice"},
      {"measurement": "memory performance", "setting": "hAPP Tg mice (APP751S/L); dose escalation to 100 mg/kg", "result": "didn't improve memory performance"},
      {"measurement": "performing the Morris Water Maze task compared to the historic group", "setting": "hAPP Tg mice (APP751S/L); hAPP Tg mice, 33 days", "result": "led to an improvement"},
      {"measurement": "performance in Morris Water Maze", "setting": "hAPP Tg mice (APP751S/L)", "result": "weak performance similar to that observed in the historic tg group"}
    ]},
    {"compound": "O=C1Nc2cccnc2Nc2ccccc21", "note": "[AC-92, LS-75]", "values": [
      {"measurement": "Kp", "setting": "in vivo; male, Lewis, ip, 50 mg/kg", "result": "~0.25"},
      {"measurement": "concentration at 3 h", "setting": "in vivo; male, Lewis, po, 50 mg/kg", "result": "~20", "unit": "nM"},
      {"measurement": "concentration at 6 h", "setting": "in vivo; male, Lewis, po, 50 mg/kg", "result": "~75", "unit": "nM"},
      {"measurement": "enrichment in the brain", "setting": "in vivo; po", "result": "enriched in the brain to a certain extent"},
      {"measurement": "tolerability of the treatment", "setting": "[1]", "result": "well tolerated"},
      {"measurement": "increase of amyloid load as % of that expected with normal progression of the model", "setting": "APPPS1 transgenic mice", "result": 55, "unit": "%"},
      {"measurement": "increase of amyloid load as % of that expected with normal progression of the model", "setting": "APPPS1 transgenic mice; listed as formula III", "result": "about 60%"},
      {"measurement": "plaque volume and area smaller than vehicle-treated controls", "setting": "APPPS1 transgenic mice; month 2-3", "result": "about 26%"},
      {"measurement": "plaque volume and area smaller than vehicle-treated controls", "setting": "APPPS1 transgenic mice; month 4-5", "result": "about 26%"},
      {"measurement": "β-amyloid plaque load", "setting": "APPPS1 transgenic mice; daily p.o. 50 mg/kg AC-92 or 100 mg/kg AC-91 for one month, between months 1 and 5 after birth", "result": "substantial reductions"},
      {"measurement": "amyloid load", "setting": "APPPS1 transgenic mice; treated animals after 3 months, 50 mg/kg daily p.o.", "result": 0.61, "unit": "%"},
      {"measurement": "concentration in brain as % of plasma concentration", "setting": "[2]; 4 months old double transgenic mice", "result": "about 5%"},
      {"measurement": "concentration in CSF as % of plasma concentration", "setting": "[2]; 4 months old double transgenic mice, listed as ACI92", "result": 20, "unit": "%"},
      {"measurement": "concentration in brain as % of plasma concentration", "setting": "[2]; 8 months old single transgenic mice", "result": 11, "unit": "%"},
      {"measurement": "Kp at 33 days", "setting": "[2]; hAPP single transgenic, 8 months old single transgenic mice", "result": "~0.11"},
      {"measurement": "Kp at 33 days", "setting": "[2]; hAPP-PS1 double-transgenic, 4 months old double transgenic mice", "result": "~0.05"},
      {"measurement": "Morris Water Maze / probe trial versus Tween 80 vehicle mice", "setting": "hAPP Tg mice (APP751S/L); AC-92 treated mice", "result": "no difference to the Tween 80 mice"},
      {"measurement": "performance in Morris Water Maze", "setting": "hAPP Tg mice (APP751S/L)", "result": "weak performance similar to that observed in the historic tg group"}
    ]},
    {"compound": "O=C1Nc2cccnc2N(C(=O)CN2CCNCC2)c2ccccc21", "note": "[des-methyl-AC-91]", "values": [
      {"measurement": "detection in CSF", "setting": "in vivo; po, 50 mg/kg", "result": "No AC-91 or dm-AC-91 was detected"}
    ]}
  ]
}
